In article PMC10819565, “Effects of H2-Receptor Antagonists on the Exposure of Dacomitinib” (Pharmaceutics, 2024):
In brackets after ≈: the same amount, converted by molar mass. Read-outs that look alike come from different tables or passages of the source.

What was measured:
[1] = parameters: method as in ref 26 = [26]; 26. US Food and Drug Administration (FDA) VIZIMPRO ® (Dacomitinib) Review Available online: https://www.accessdata.fda.gov/drugsatfda_docs/nda/2018/211288Orig1s000ChemR.pdf (accessed on 6 November 202); conditions: cited from earlier work
[2] = Disposition PK parameters fitted to intravenous data from the absolute bioavailability study in healthy volunteers; type: in vivo, human; conditions: automatic estimation using PK Plus based on IV data from clinical study
Excerpt: (§1) PBPK modeling was used to evaluate the effect of changes in gastric pH on dacomitinib absorption. With physicochemical properties (e.g., Log P, pKa, mean precipitation time) and solubility data at different pH for dacomitinib, a two-compartment model coupled to the ACAT model was built using Gastroplus^TM version 9.7 (Simulation Plus, Inc., Lancaster, CA, USA) with default fasted gut physiology. Disposition PK parameters for dacomitinib were derived by initially fitting the PK data after intravenous (IV) administration from a study where the absolute bioavailability of dacomitinib was estimated by comparing oral to intravenous administration of dacomitinib in healthy volunteers.

[3] = parameters: method as in ref 26 = [26]; 26. US Food and Drug Administration (FDA) VIZIMPRO ® (Dacomitinib) Review Available online: https://www.accessdata.fda.gov/drugsatfda_docs/nda/2018/211288Orig1s000ChemR.pdf (accessed on 6 November 202); conditions: base; cited from earlier work
[4] = parameters: method as in ref 2 = [2]; 2. US Food and Drug Administration (FDA) VIZIMPRO ® (Dacomitinib) Prescribing Information Available online: https://www.accessdata.fda.gov/drugsatfda_docs/label/2018/211288s000lbl.pdf (accessed on 6 N); conditions: with 20 mL locally acting antacid (Maalox Maximum Strength, 400 mg/5 mL); cited from earlier work
[5] = parameters: method as in ref 26 = [26]; 26. US Food and Drug Administration (FDA) VIZIMPRO ® (Dacomitinib) Review Available online: https://www.accessdata.fda.gov/drugsatfda_docs/nda/2018/211288Orig1s000ChemR.pdf (accessed on 6 November 202); conditions: cited from earlier work; remark: listed apart in the source
[6] = Within-patient comparison of steady-state trough concentrations (Ctrough,ss) with and without concomitant H2RA, pooled data from 11 clinical studies; type: in vivo, human; conditions: for Ctrough,ss Geometric Mean (Geometric CV%), Test / Ctrough,ss Geometric Mean (Geometric CV%), Reference: patients, dose normalized to 45 mg QD; for Ctrough,ss Geometric Mean (Geometric CV%), Test: dacomitinib co-administered with H2RA (at least 3 days); for Ctrough,ss Geometric Mean (Geometric CV%), Reference: dacomitinib without H2RA
Protocol: This analysis included data from 11 clinical studies. Patients in these studies who received continuous oral dosing schedule of dacomitinib at dose levels of 45 mg once daily (QD), 30 mg QD, 15 mg QD and 60 mg QD, with a cycle duration of 28 days, are included in the analysis dataset. All trials were conducted in accordance with the International Council on Harmonization Good Clinical Practice guidelines and the provisions of the Declaration of Helsinki. The institutional review board or independent ethics committee at each participating center approved the protocol. All patients provided written informed consent before enrollment.
Patients in the 11 studies who received continuous oral dosing schedule of dacomitinib at dose levels of 45 mg once daily (QD), 30 mg QD, 15 mg QD and 60 mg QD, with a cycle duration of 28 days, are included in the analysis dataset. […] PF-05199265 has been identified to have an inhibitory and selectivity profile similar to the parent molecule. For each patient, steady-state trough concentrations (Ctrough,ss) were defined as an observed concentration collected at the nominal predose (0 h) time point on Day 1 of Cycle 2 through Cycle 10 with at least 14 days of continuous dacomitinib dosing at one dose level. Ctrough,ss were dose normalized to 45 mg, calculated as Ctrough,ss times 45 mg/dose for the analysis and reporting.
The Ctrough,ss values were used to represent steady-state exposure in patients following administration of 45 mg QD dacomitinib.
The Ctrough,ss collected prior to any reported H2RA use or at least 14 days after the last reported date of H2RA use served as the dacomitinib without H2RA reference. Dacomitinib co-administered with H2RA as the comparator was defined as Ctrough,ss collected after the use of any reported H2RA continuously for at least 3 days. The H2RAs reported in these studies included cimetidine, famotidine, nizatidine and ranitidine.

[7] = healthy volunteers, cited from earlier work; for AUCinf Observed / Cmax Observed: 45 mg oral
[8] = Oral absorption PBPK model (GastroPlus ACAT) simulations and gastric pH parameter sensitivity analysis; parameters: species or system human; conditions: 45 mg oral
Excerpt: as §1
The model that utilized the default physiological conditions of Gastroplus was used to simulate the plasma profiles for a 45 mg oral dose in healthy volunteers from the same study. […] The modified model was developed by optimizing the absorption scale factor (ASF) model based on the clinical PK data to reflect the prolonged Tmax of the plasma profile since all the systemic PK parameters were fixed after fitting the IV profile.
The model was validated using the mean plasma profiles of dacomitinib under 3 different conditions or treatments (fasted, fed, and PPI treatment using rabeprazole 40 mg administered QD for 7 days) following oral administration of a 45 mg dose in a clinical study in healthy volunteers to evaluate the food effect and effect of PPIs. In this study, PK samples were collected at the same nominal times of 0, 1, 2, 4, 6, 8, 12, 24, 48, 72, 96, 120, 144, 168, 192, 216 and 264 h post-dose. The mean plasma drug concentration–time profile of dacomitinib was obtained for each condition, namely fasted, fed and PPI treatment, and respective exposure parameters (Cmax and AUCinf) were derived from Gastroplus. The simulation was conducted using Gastroplus with the default physiological conditions of fasted or fed and by setting the gastric pH in the model to 6.0. This allowed for the simulation of the situations corresponding to fasted, fed and PPI treatment, respectively.
The gastric pH in the PBPK model was manipulated to enable the evaluation of a range of pH values from 1.0 to 6.0 during pharmacokinetic (PK) simulations. Parameter sensitivity analyses (PSAs) were performed on the PBPK model to assess the impact of pH variations from 1.0 to 5.0, which mimicked the effect of H2RAs on the absorption of dacomitinib.

[9] = co-administration with PPI (rabeprazole 40 mg QD for 7 days)
[10] = single 45 mg dose after 7 days of rabeprazole 40 mg

- K12 [2]: 0.033 h⁻¹
- K21 [2]: 0.038 h⁻¹
- V2 [2]: 19.018 L/kg
- Vc [2]: 21.9 L/kg
- clearance ([2]; human, plasma, two-compartment model, healthy volunteers): 602 mL/min
- Ctrough,ss Geometric Mean (Geometric CV%), Test [6]: 53.2 ng/mL
- Ctrough,ss Geometric Mean (Geometric CV%), Test ([6]; listed as Dacomitinib): 53.2 (18.7) ng/mL
- Ctrough,ss Geometric Mean (Geometric CV%), Reference [6]: 57.56 ng/mL
- Ctrough,ss Geometric Mean (Geometric CV%), Reference ([6]; listed as Dacomitinib): 57.56 (8.4) ng/mL
- Ctrough,ss Geometric Mean Ratio test/reference (90% CI) ([6]; with H2RA vs without H2RA, adjusted, linear mixed effects model): 85.88 (72.9, 101.11) %
- Ratio of AUCinf (predicted-to-observed) ([8]; co-administration with PPI): 0.857
- Ratio of Cmax (predicted-to-observed) ([8]; co-administration with PPI): 0.940
- Ratio of AUCinf (predicted-to-observed) ([8]; fasted state): 1.00
- Ratio of Cmax (predicted-to-observed) ([8]; fasted state): 1.01
- Ratio of AUCinf (predicted-to-observed) ([8]; fed state): 1.07
- Ratio of Cmax (predicted-to-observed) ([8]; fed state): 0.952
Structure (SMILES): COc1cc2ncnc(Nc3ccc(F)c(Cl)c3)c2cc1NC(=O)/C=C/CN1CCCCC1 [dacomitinib]
- LogP ([1]; cationic): 1.8
- LogP ([1]; neutral): 5.3
- pKa [3]: 5.03 (base)
- changes in dacomitinib concentrations [4]: did not cause clinically relevant changes
- Solubility ([5]; pH 1.28): 10000 µg/mL (≈ 21300 µM)
- Solubility ([5]; pH 4.71): 3700 µg/mL (≈ 7870 µM)
- Solubility ([5]; pH 5.09): 340 µg/mL (≈ 723 µM)
- Solubility ([5]; pH 5.17): 230 µg/mL (≈ 489 µM)
- Solubility ([5]; pH 5.3): 160 µg/mL (≈ 340 µM)
- Solubility ([5]; pH 6.13): 6 µg/mL (≈ 12.8 µM)
- Solubility ([5]; pH 6.94): 1 µg/mL (≈ 2.13 µM)
- AUCinf Observed [7, 9]: 715.96 ng·h/mL
- Cmax Observed [7, 9]: 9.125 ng/mL
- AUCinf Observed ([7]; fasted state): 1171 ng·h/mL
- Cmax Observed ([7]; fasted state): 18.41 ng/mL
- AUCinf Observed ([7]; fed state): 1163 ng·h/mL
- Cmax Observed ([7]; fed state): 21.35 ng/mL
- decrease of AUC ([7]; co-administration with multiple doses of rabeprazole (a PPI)): 39%
- reduction of AUC0-96 [7, 10]: 39%
- reduction of Cmax [7, 10]: 51%
